This passage reports IC50 results from patent publication US10828301B2, “2,4-pyrimidinediamine compounds and their uses” (Rigel Pharmaceuticals, Inc, priority 2002, dated 2020).

Experiment [1] has as its system cultured human mast cells (CHMC). The experiment in a line: CHMC low cell density ionomycin activation: tryptase assay. It counts as cell-based. As to conditions: Low Density CHMC, ionomycin activation, tryptase readout, read-out: CHMC Ionomycin Tryptase.
The test system is the same in experiment [2]. Briefly: CHMC low cell density IgE activation: tryptase and LTC4 assays. The format is cell-based. The conditions noted are these: Low Density CHMC, anti-IgE activation, tryptase readout, read-out: CHMC anti-IgE Tryptase. Put shortly: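 Degranulation measured after 30 min anti-IgE challenge at 37° C of CHMC plated at 1000-1500 cells/well following 1 h preincubation. Readouts: LTC4 by ELISA on donor-specific diluted supernatants, and tryptase activity from a 30 min room-temperature substrate reaction.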

As for `Oc1cccc(Nc2nc(Nc3ccc4[nH]ccc4c3)ncc2F)c1` [Compound R926749, 5-Fluoro-N4-(3-hydroxyphenyl)-N2-[(1H)-indol-5-yl]-2,4-pyrimidinediamine], the IC50 in experiment [1] (Homo sapiens, Mast cell) is greater than 10 µM; in experiment [2] (Homo sapiens, Mast cell), 0.472 µM.
Consider `Oc1cccc(Nc2ncc(F)c(NCc3csc4ccc(Cl)cc34)n2)c1` [Compound R926722, N4-[(5-Chloro-1-benzothiophen-3-yl)methyl]-5-fluoro-N2-(3-hydroxyphenyl)-2,4-pyrimidinediamine], for which the IC50 is greater than 10 µM in experiment [1] (Homo sapiens, Mast cell) and 5.96 µM in experiment [2] (Homo sapiens, Mast cell).
As for `Oc1cccc(Nc2nc(Nc3ccc(OCc4nnn[nH]4)cc3)ncc2C(F)(F)F)c1` [Compound R920846], the IC50 in experiment [1] and in experiment [2] was greater than 10 µM throughout.
For `Cc1ccc(-c2ccccc2)cc1Nc1ncc(Br)c(Nc2cc(-c3ccccc3)ccc2C)n1` [Compound R925800, N2,N4-Bis(2-methyl-5-phenylphenyl)-5-bromo-2,4-pyrimidinediamine], the IC50 was greater than 10 µM in experiment [1] (Homo sapiens, Mast cell) and greater than 10 µM in experiment [2] (Homo sapiens, Mast cell).
In the case of `OCCOc1cccc(Nc2nc(Nc3cccc(O)c3)ncc2F)c1` [Compound R935170, 5-Fluoro-N4-[3-(2-hydroxyethoxy)phenyl]-N2-(3-hydroxyphenyl)-2,4-pyrimidinediamine], the IC50 was greater than 10 µM in experiment [1] (Homo sapiens, Mast cell) and 0.673 µM in experiment [2] (Homo sapiens, Mast cell).
The matching figures for `COC(=O)c1cc2cc(Nc3nc(Nc4ccc5c(c4)OCCO5)ncc3F)ccc2o1` [Compound R926485, N2-(3,4-Ethylenedioxyphenyl)-N4-(2-methoxycarbonylbenzofuran-5-yl)-5-fluoro-2,4-pyrimidinediamine]: greater than 10 µM and 4.01 µM.
Regarding `CCOC(=O)Cc1ccc(Nc2ncc(C#N)c(Nc3ccc(CC(=O)OCC)cc3)n2)cc1` [Compound R926662, N2,N4-Bis[4-(ethoxycarbonylmethyl)phenyl]-5-cyano-2,4-pyrimidinediamine], the IC50 in experiment [1] (Homo sapiens, Mast cell) is greater than 10 µM; in experiment [2] (Homo sapiens, Mast cell) it was greater than 10 µM.
For `CCOc1ccc(Nc2ncc([N+](=O)[O-])c(Nc3ccc(OCC)cc3)n2)cc1` [Compound R940090, N2,N4-Bis-(4-ethoxypenyl)-5-nitro-2,4-pyrimidinediamine], the IC50 in experiment [1] and in experiment [2] was greater than 10 µM throughout.
Take `OCCOc1cccc(Nc2ncc(F)c(Nc3ccc4oc(CO)cc4c3)n2)c1` [Compound R935178, 5-Fluoro-N2-[3-(2-hydroxyethyloxy)phenyl]-N4-(2-hydroxymethylbenzofur-5-yl)-2,4-pyrimidinediamine]: the IC50 in experiment [1] (Homo sapiens, Mast cell) was greater than 10 µM; in experiment [2] (Homo sapiens, Mast cell), 0.515 µM.
The matching figures for `Oc1cccc(Nc2nc(Nc3ccc4cc[nH]c4c3)ncc2F)c1` [Compound R926751, 5-Fluoro-N4-(3-hydroxyphenyl)-N2-[(1H)-indol-6-yl]-2,4-pyrimidinediamine]: greater than 10 µM and 0.598 µM.
For `O=C(O)c1ccc(Nc2ncc(F)c(Nc3ccc(C(=O)O)c(O)c3)n2)cc1O` [Compound R945061, N2,N4-Bis(3-hydroxy-4-carboxyphenyl)-5-fluoro-2,4-pyrimidinediamine], in that order: greater than 10 µM and 10 µM.
On to `O=C1COc2ccc(Nc3nc(Nc4cccc(O)c4)ncc3F)cc2N1` [Compound R908702, N4-(1,4-Benzoxazine-3-on-6-yl)-5-fluoro-N2-(3-hydroxyphenyl)-2,4-pyrimidinediamine], for which the IC50 in experiment [1] (Homo sapiens, Mast cell) was found to be 7.4 µM; in experiment [2] (Homo sapiens, Mast cell), 0.104 µM.
For the compound `Oc1ccc(CCNc2ccnc(NCCc3ccc(O)cc3)n2)cc1` [Compound R925790, N2,N4-Bis[2-(4-hydroxyphenyl)ethyl]-2,4-pyrimidinediamine], the IC50 in experiment [1] (Homo sapiens, Mast cell) is greater than 10 µM; in experiment [2] (Homo sapiens, Mast cell), greater than 10 µM.
Take `Oc1cccc(Nc2nc(N=Cc3ccoc3)ncc2F)c1` [Compound R950210, N2-(3-Furylmethylene)-5-fluoro-N4-(3-hydroxyphenyl)-2,4-pyrimidinediamine]: the IC50 was greater than 10 µM in experiment [1] (Homo sapiens, Mast cell) and 10 µM in experiment [2] (Homo sapiens, Mast cell).
On to `CC(Nc1nc(Nc2cccc(O)c2)ncc1Br)c1ccc(F)cc1` (racemic) [Compound R935023, (±)-5-Bromo-N4-[1-(4-fluorophenyl)ethyl]-N2-(3-hydroxyphenyl)-2,4-pyrimidinediamine], for which the IC50 in experiment [1] (Homo sapiens, Mast cell) was greater than 10 µM; in experiment [2] (Homo sapiens, Mast cell), greater than 10 µM.
In the case of `Nc1nc(N(c2ccc(CO)cc2)c2ccc3c(c2)OCCO3)ncc1F` [Compound R925760, N2-(3,4-Ethylenedioxyphenyl)-5-fluoro-N2-[4-(hydroxymethyl)phenyl]-2,4-pyrimidinediamine], the IC50 was greater than 10 µM in experiment [1] (Homo sapiens, Mast cell) and 4.85 µM in experiment [2] (Homo sapiens, Mast cell).
Take `CC(C)(C)c1ccc(Nc2nc(Nc3ccc4oc(C(=O)O)cc4c3)ncc2F)cc1` [Compound R926481, N4-(4-tert-Butylphenyl)-N2-(2-carboxybenzofuran-5-yl)-5-fluoro-2,4-pyrimidinediamine]: the IC50 in experiment [1] (Homo sapiens, Mast cell) is greater than 10 µM; in experiment [2] (Homo sapiens, Mast cell), 1.45 µM.
Consider `CCOC(=O)c1nc(Nc2ccc3c(c2)OCCO3)nc(Nc2ccc3c(c2)OCCO3)c1N` [Compound R925857, 5-Amino-6-ethoxycarbonyl-N2,N4-bis(3,4-ethylenedioxyphenyl)-2,4-pyrimidinediamine], for which the IC50 in experiment [1] (Homo sapiens, Mast cell) was greater than 10 µM; in experiment [2] (Homo sapiens, Mast cell), 5.95 µM.
As to `CNC(=O)c1cc2cc(Nc3ncc(F)c(Nc4cccc(C(C)(C)C)c4)n3)ccc2o1` [Compound R940291, N4-(3-tert-Butylphenyl)-5-fluoro-N2-[2-(N-methylamino)carbonylbenzofur-5-yl]-2,4-pyrimidinediamine], the IC50 was greater than 10 µM in experiment [1] (Homo sapiens, Mast cell) and 0.396 µM in experiment [2] (Homo sapiens, Mast cell).
For `CC(=O)Nc1cccc(Nc2ncc(F)c(Nc3cccc(NC(C)=O)c3)n2)c1` [Compound R926682, N2,N4-Bis(3-acetamidophenyl)-5-fluoro-2,4-pyrimidinediamine], in that order: greater than 10 µM and 8.41 µM.
In the case of `OCCOc1ccc(Nc2ncc(F)c(Nc3ccc4oc(CO)cc4c3)n2)cc1` [Compound R935174, 5-Fluoro-N2-[4-(2-hydroxyethoxy)phenyl]-N4-(2-hydroxymethylbenzofur-5-yl)-2,4-pyrimidinediamine], the IC50 in experiment [1] (Homo sapiens, Mast cell) is greater than 10 µM; in experiment [2] (Homo sapiens, Mast cell) it was 1.38 µM.
`COC(=O)Cc1ccc(Nc2ncc(F)c(Nc3ccc(CC(=O)OC)cc3)n2)cc1` [Compound R926605, N2,N4-Bis[4-(methoxycarbonylmethyl)phenyl]-5-fluoro-2,4-pyrimidinediamine]: the IC50 in experiment [1] (Homo sapiens, Mast cell) was greater than 10 µM; in experiment [2] (Homo sapiens, Mast cell), 2.45 µM.
Regarding `COC(=O)c1cc(Nc2nc(Nc3cccc(O)c3)ncc2Br)cn1C` [Compound R935025, 5-Bromo-N2-(3-hydroxyphenyl)-N4-(N-methyl-2-carbomethoxypyrrol-4-yl)-2,4-pyrimidinediamine], the IC50 in experiment [1] (Homo sapiens, Mast cell) is greater than 10 µM; in experiment [2] (Homo sapiens, Mast cell) it was 1.04 µM.
Turning to `COc1cc(Nc2nc(Nc3cccc(OCCO)c3)ncc2F)cc(OC)c1` [Compound R935181, N4-(3,5-Dimethoxyphenyl)-5-fluoro-N2-[3-(2-hydroxyethoxy)phenyl]-2,4-pyrimidinediamine], the IC50 in experiment [1] (Homo sapiens, Mast cell) is greater than 10 µM; in experiment [2] (Homo sapiens, Mast cell) it was 1.76 µM.
For `COc1ccc(Nc2ncc(F)c(Nc3ccc(OC)c(O)c3)n2)cc1O` [Compound R926339, N2,N4-Bis(3-hydroxy-4-methoxyphenyl)-5-fluoro-2,4-pyrimidinediamine], in that order: greater than 10 µM and 0.66 µM.
For `N#Cc1cccc(Nc2nc(Nc3cccc(O)c3)ncc2F)c1` [Compound R945109, N4-(3-Cyanophenyl)-5-fluoro-N2-(3-hydroxyphenyl)-2,4-pyrimidinediamine], in that order: greater than 10 µM and 1.02 µM.
For `Cc1c(O)ccc(Nc2ncc(F)c(Nc3ccc(O)c(C)c3C)n2)c1C` [Compound R940217, N2,N4-Bis-(2,3-dimethyl-4-hydroxyphenyl)-5-fluoro-2,4-pyrimidinediamine], in that order: greater than 10 µM and greater than 10 µM.
Take `COC(=O)c1cc2cc(Nc3ncc(F)c(Nc4cccc(C(C)C)c4)n3)ccc2o1` [Compound R940283, 5-fluoro-N4-(3-isopropylphenyl)-N2-(2-methoxycarbonylbenzofur-5-yl)-2,4-pyrimidinediamine]: the IC50 came to 4.98 µM in experiment [1] (Homo sapiens, Mast cell) and 0.553 µM in experiment [2] (Homo sapiens, Mast cell).
The matching figures for `CCCCOc1ccc(Nc2cc(Nc3ccc4c(c3)OCCO4)c(F)cn2)cc1` [Compound R920666, N2-(4-n-Butyloxyphenyl)-N4-(3,4-ethylenedioxyphenyl)-5-fluoro-2,4-pyridinediamine]: greater than 10 µM and 2.53 µM.
Regarding `CNc1ncc(F)c(Nc2ccc3c(c2)OCCO3)n1` [Compound R950189], the IC50 is greater than 10 µM in experiment [1] and 10 µM in experiment [2].
With `Nc1cc(Nc2ncc(F)c(Nc3cc(N)cc(C(F)(F)F)c3)n2)cc(C(F)(F)F)c1` [Compound R950140, N2,N4-Bis(3-amino-5-trifluoromethylphenyl)-5-fluoro-2,4-pyrimidinediamine], the IC50 in experiment [1] (Homo sapiens, Mast cell) was greater than 10 µM; in experiment [2] (Homo sapiens, Mast cell), 2.83 µM.
The matching figures for `Nc1cccc(Nc2ncc(F)c(Nc3cccc(O)c3)n2)c1` [Compound R950227, N2-(3-Aminophenyl)-5-fluoro-N4-(3-hydroxyphenyl)-2,4-pyrimidinediamine]: greater than 10 µM and 1.03 µM.
For `O=C1CCNC2=COc3ccc(Nc4nc(Nc5cccc(O)c5)ncc4F)cc3N12` [Compound R945237, 5-Fluoro-N2-(3-hydroxyphenyl)-N4-[1-oxo-1,2,3,6-tetrahydropyrimido[2,1-c][1,4]benzoxazin-9-yl]-2,4-pyrimidinediamine], in that order: greater than 10 µM and 0.461 µM.
